Each structure is given as a SMILES string.

Usually DC50 stands for the midpoint of the concentration-degradation curve.

Chain of STAT3 (P40763 whole entry): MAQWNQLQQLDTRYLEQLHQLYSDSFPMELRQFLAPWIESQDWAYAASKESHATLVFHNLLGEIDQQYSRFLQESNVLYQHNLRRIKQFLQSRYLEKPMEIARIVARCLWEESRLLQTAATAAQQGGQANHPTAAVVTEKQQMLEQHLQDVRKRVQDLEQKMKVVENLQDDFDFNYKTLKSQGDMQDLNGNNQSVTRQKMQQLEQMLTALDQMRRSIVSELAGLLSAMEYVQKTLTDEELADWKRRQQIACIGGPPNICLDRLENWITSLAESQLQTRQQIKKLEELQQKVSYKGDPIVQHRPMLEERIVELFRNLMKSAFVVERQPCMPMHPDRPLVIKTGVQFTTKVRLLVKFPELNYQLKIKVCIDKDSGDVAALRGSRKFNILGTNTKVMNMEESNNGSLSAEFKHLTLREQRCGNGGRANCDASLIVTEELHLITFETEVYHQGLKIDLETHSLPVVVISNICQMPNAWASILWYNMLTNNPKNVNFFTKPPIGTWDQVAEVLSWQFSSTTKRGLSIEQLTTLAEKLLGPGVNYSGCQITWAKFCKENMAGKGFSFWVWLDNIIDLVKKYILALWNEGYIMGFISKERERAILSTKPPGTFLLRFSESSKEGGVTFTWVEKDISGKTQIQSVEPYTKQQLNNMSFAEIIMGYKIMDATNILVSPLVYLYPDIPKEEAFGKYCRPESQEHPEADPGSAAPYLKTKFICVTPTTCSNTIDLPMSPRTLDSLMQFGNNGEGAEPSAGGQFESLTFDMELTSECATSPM

One assay concerns the target STAT3 (Homo sapiens, UniProt P40763). The assay is described as follows: STAT3 HiBiT degradation assay in transfected A549 cells. Type of assay: cell-based. Also noted: expressed in transfected cells; host or cells: A549. As to conditions: A549, 24 h; read-out: STAT3 HiBiT A549 degradation 24 h: Average external-Abs DC50. The gist of the method:
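Transfected A549 cells (~2000/well) plated 24 h, then treated 24 h at 37 °C, 5% CO2 with a 3-fold, 10-point compound dilution. HiBiT lytic luminescence read after 10 min at room temperature; remaining STAT3 normalized to negative and positive controls, four-parameter fit. DC50 binned A <0.01, B 0.01–0.1, C 0.1–1.0, D >1.0 µM.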
Background: With HiBiT, luminescence reflects the tagged protein that the partner subunit can reach.
Regarding `Cn1c(=O)n(C2CCC(=O)NC2=O)c2ccc(CCCCCCc3cc4c5c(c3)C[C@@H](C(=O)N[C@@H](CCC(N)=O)c3ccccn3)N5C(=O)[C@@H](NC(=O)c3cc5cc(C(=O)P(=O)(O)O)ccc5[nH]3)CC4)cc21` (stereo partly drawn) [Compound I-277, 2-[[(2S,11S)-2-[[(1S)-3-carbamoyl-1-(pyridin-2-yl)propyl]carbamoyl]-6-[6-[1-(2,6-dioxopiperidin-3-yl)-3-methyl-2-oxo-1,3-benzodiazol-5-yl]hexyl]-12-oxo-1-azatricyclo[6.4.1.0^[4,13]]trideca-4(13),5,7-trien-11-yl]carbamoyl]-1H-indole-5-carbonylphosphonic acid], the DC50 fell in the range of 10 to 100 nM.
Still for that read-out and setting: the result for `Cc1ncsc1-c1ccc(CNC(=O)[C@@H]2C[C@@H](O)CN2C(=O)[C@@H](NC(=O)CCCCCc2ccc(OC[C@H](CCC(N)=O)NC(=O)[C@@H]3Cc4cccc5c4N3C(=O)[C@@H](NC(=O)c3cc4cc(C(=O)P(=O)(O)O)ccc4[nH]3)CC5)cc2)C(C)(C)C)cc1` [Compound I-152, 2-[[(2S,11S)-2-[[(2S)-4-carbamoyl-1-[4-(5-[[(2S)-1-[(2S,4R)-4-hydroxy-2-([[4-(4-methyl-1,3-thiazol-5-yl)phenyl]methyl]carbamoyl)pyrrolidin-1-yl]-3,3-dimethyl-1-oxobutan-2-yl]carbamoyl]pentyl)phenoxy]butan-2-yl]carbamoyl]-12-oxo-1-azatricyclo [6.4.1.0^[4,13]]trideca-4(13),5,7-trien-11-yl]carbamoyl]-1H-indole-5-carbonylphosphonic acid] reads > 1000 nM; that for `Cc1ncsc1-c1ccc([C@H](C)NC(=O)[C@@H]2C[C@H](O)CN2C(=O)[C@@H](NC(=O)CCCCc2ccc(CO[C@H](C)[C@H](CCC(N)=O)NC(=O)[C@@H]3Cc4cccc5c4N3C(=O)[C@@H](NC(=O)c3cc4cc(C(=O)P(=O)(O)O)ccc4[nH]3)CC5)cc2)C(C)(C)C)cc1` [Compound I-149, diammonium 2-[[(2S,11S)-2-[[(3S,4R)-1-carbamoyl-4-[[4-(4-[[(2S)-1-[(2S,4S)-4-hydroxy-2-[[(1S)-1-[4-(4-methyl-1,3-thiazol-5-yl)phenyl]ethyl]carbamoyl]pyrrolidin-1-yl]-3,3-dimethyl-1-oxobutan-2-yl]carbamoyl]butyl)phenyl]methoxy]pentan-3-yl]carbamoyl]-12-oxo-1-azatricyclo [6.4.1.0^[4,13]]trideca-4(13),5,7-trien-11-yl]carbamoyl]-1H-indole-5-carbonylphosphonate], > 1000 nM; that for `CC(=O)N1CC[C@H]2CC[C@@H](C(=O)N[C@@H](CCC(N)=O)COc3cccc(CCCC(=O)N[C@H](C(=O)N4C[C@H](O)C[C@H]4C(=O)N[C@@H](C)c4ccc(-c5scnc5C)cc4)C(C)(C)C)c3F)N2C(=O)[C@@H](NC(=O)c2cc3cc(C(=O)P(=O)(O)O)ccc3[nH]2)C1` [Compound I-231, diammonium 2-[[(5S,8S,10aR)-3-acetyl-8-[[(2S)-4-carbamoyl-1-[2-fluoro-3-(3[[(2S)-1-[(2S,4R)-4-hydroxy-2-[[(1S)-1-[4-(4-methyl-1,3-thiazo1-5-yl)phenyl]ethyl]carbamoyl]pyrrolidin-1-yl]-3,3-dimethyl-1-oxobutan-2-yl]carbamoyl]propyl)phenoxy]butan-2-yl]carbamoyl]-6-oxo-octahydropyrrolo[1,2-a][1,5]diazocin-5-yl]carbamoyl]-1H-indole-5-carbonylphosphonate], 10 to 100 nM.
Take `Cc1ncsc1-c1ccc([C@H](C)NC(=O)[C@@H]2C[C@@H](O)CN2C(=O)[C@@H](NC(=O)CCCCc2cccc(OC[C@H](CCC(N)=O)NC(=O)[C@@H]3Cc4cccc5c4N3C(=O)[C@@H](NC(=O)c3cc4cc(C(=O)P(=O)(O)O)ccc4[nH]3)CC5)c2Cl)C(C)(C)C)cc1` [Compound I-243]: the DC50 is < 10 nM.
As to `Cn1c(=O)n(C2CCC(=O)NC2=O)c2ccc([C@H]3CC[C@H](CCCC(=O)N4CC[C@H]5CC[C@@H](C(=O)NC(CCC(N)=O)C(=O)NC(c6ccccc6)c6ccccc6)N5C[C@@H](NC(=O)c5cc6cc(C(=O)P(=O)(O)O)ccc6[nH]5)C4)CC3)cc21` (some centres unmarked) [Compound I-271], the DC50 lay within 100 to 1000 nM.
`Cn1c(=O)n(C2CCC(=O)NC2=O)c2ccc(CCCCCCOc3ccc4c5c3CC[C@H](NC(=O)c3cc6cc(C(=O)P(=O)(O)O)ccc6[nH]3)C(=O)N5[C@H](C(=O)N[C@@H](CCC(N)=O)C(=O)NC(c3ccccc3)c3ccccc3)C4)cc21` (stereo partly drawn) [Compound I-269, 2-[[(2S,11S)-2-[[(1S)-3-Carbamoyl-1-(diphenylmethylcarbamoyl)propyl]carbamoyl]-7-([6-[1-(2,6-dioxopiperidin-3-yl)-3-methyl-2-oxo-1,3-benzodiazol-5-yl]hexyl]oxy)-12-oxo-1-azatricyclo[6.4.1.0^[4,13]]trideca-4(13),5,7-trien-11-yl]carbamoyl]-1H-indole-5-carbonylphosphonic acid]: the 50% degradation concentration (DC50) was > 1000 nM.
For `Cc1ncsc1-c1ccc([C@H](C)NC(=O)[C@@H]2C[C@@H](O)CN2C(=O)[C@@H](NC(=O)CCCCCc2cc(OC[C@H](CCC(N)=O)NC(=O)[C@@H]3Cc4cccc5c4N3C(=O)[C@@H](NC(=O)c3cc4cc(C(=O)P(=O)(O)O)ccc4[nH]3)CC5)ccc2F)C(C)(C)C)cc1` [Compound I-215], the 50% degradation concentration (DC50) lay within 10 to 100 nM.
For the compound `Cc1cc(CCCCC(=O)N[C@H](C(=O)N2C[C@H](O)C[C@H]2C(=O)N[C@@H](C)c2ccc(-c3scnc3C)cc2)C(C)(C)C)ccc1CO[C@H](C)[C@H](CCC(N)=O)NC(=O)[C@@H]1Cc2cccc3c2N1C(=O)[C@@H](NC(=O)c1cc2cc(C(=O)P(=O)(O)O)ccc2[nH]1)CC3` [Compound I-226, 2-[[(2S,11S)-2-[[(3S,4R)-1-carbamoyl-4-[[4-(4-[[(2S)-1-[(2S,4R)-4-hydroxy-2-[[(1S)-1-[4-(4-methyl-1,3-thiazol-5-yl)phenyl]ethyl]carbamoyl]pyrrolidin-1-yl]-3,3-dimethyl-1-oxobutan-2-yl]carbamoyl]butyl)-2-methylphenyl]methoxy]pentan-3-yl]carbamoyl]-12-oxo-1-azatricyclo[6.4.1.0^[4,13]]trideca-4(13),5,7-trien-11-yl]carbamoyl]-1H-indole-5-carbonylphosphonic acid], the DC50 lay in the range of 10 to 100 nM.
Same read-out and setting: as for `Cc1ncsc1-c1ccc(CNC(=O)[C@@H]2C[C@@H](O)CN2C(=O)[C@@H](NC(=O)C2CCN(c3ccc(CO[C@H](C)[C@H](CCC(N)=O)NC(=O)[C@@H]4Cc5cccc6c5N4C(=O)[C@@H](NC(=O)c4cc5cc(C(=O)P(=O)(O)O)ccc5[nH]4)CC6)cc3)CC2)C(C)(C)C)cc1` [Compound I-161], the figure is > 1000 nM.

Still in this assay, the particulars now being: read-out: STAT3 HiBiT A549 degradation 24 h: Average external-Abs DC50; A549, 24 h.
Turning to `CC(=O)N1CC[C@H]2CC[C@@H](C(=O)N[C@@H](CCC(N)=O)COc3cc(C)cc(CCCCC(=O)N[C@H](C(=O)N4C[C@H](O)C[C@H]4C(=O)N[C@@H](C)c4ccc(-c5scnc5C)cc4)C(C)(C)C)c3F)N2C(=O)[C@@H](NC(=O)c2cc3cc(C(=O)P(=O)(O)O)ccc3[nH]2)C1` [Compound I-236, diammonium 2-[[(5S,8S,10aR)-3-acetyl-8-[[(2S)-4-carbamoyl-1-[2-fluoro-3-(4-[[(2S)-1-[(2S,4R)-4-hydroxy-2-[[(1S)-1-[4-(4-methyl-1,3-thiazol-5-yl)phenyl]ethyl]carbamoyl]pyrrolidin-1-yl]-3,3-dimethyl-1-oxobutan-2-yl]carbamoyl]butyl)-5-methylphenoxy]butan-2-yl]carbamoyl]-6-oxo-octahydropyrrolo[1,2-a][1,5]diazocin-5-yl]carbamoyl]-1H-indole-5-carbonylphosphonate], the DC50 was 100 to 1000 nM.

The values above are taken from US12077555B2, “STAT degraders and uses thereof” (Kymera Therapeutics, Inc., priority 2019, dated 2024).
